Assay results from ChEMBL document CHEMBL4270495, “Oleanane-, ursane-, and quinone methide friedelane-type triterpenoid derivatives: Recent advances in cancer treatment” (Eur J Med Chem, 2017).
pIC50: −log10 of the molar value.

What was measured:
Assay type in all cases: functional, cell-based
[1] = test system: MDA-MB-231; experiment: Cytotoxicity in human MDA-MB-231 cells assessed as reduction in cell viability incubated for 24 hrs by MTT assay; conditions: MDA-MB-231, 24 h
[2] = test system: MCF7; experiment: Cytotoxicity in human MCF7 cells assessed as reduction in cell viability incubated for 24 hrs by MTT assay; conditions: MCF7, 24 h
[3] = test system: TERT-RPE1; experiment: Cytotoxicity in human hTERT-RPE1 cells assessed as reduction in cell viability incubated for 24 hrs by MTT assay; conditions: RPE-1, 24 h
[4] = test system: BGC-823; experiment: Cytotoxicity in human BGC823 cells assessed as reduction in cell viability incubated for 72 hrs by MTT assay; conditions: BGC-823, 72 h
[5] = test system: HeLa; experiment: Cytotoxicity in human HeLa cells assessed as reduction in cell viability incubated for 72 hrs by MTT assay
[6] = test system: HepG2; experiment: Cytotoxicity in human HepG2 cells assessed as reduction in cell viability incubated for 72 hrs by MTT assay; conditions: HepG2, 72 h
[7] = test system: HT-29; experiment: Cytotoxicity in human HT-29 cells assessed as reduction in cell viability incubated for 72 hrs by MTT assay; conditions: HT-29, 72 h

Row | SMILES | pIC50 [1] | pIC50 [2] | pIC50 [3] | pIC50 [4] | further results
1 | COC(=O)/C=C/c1ccc(OC(=O)[C@@]2(C)CC[C@]3(C)CC[C@]4(C)C(=CC(=O)[C@@H]5[C@@]6(C)CC[C@H](OC(=O)[C@@H](N)CC[Se]C)C(C)(C)[C@@H]6CC[C@]54C)[C@H]3C2)cc1 | 5.20 | 5.22 | 5.20 |  | 
2 | CCOC(=O)/C=C/c1ccc(OC(=O)[C@@]2(C)CC[C@]3(C)CC[C@]4(C)C(=CC(=O)[C@@H]5[C@@]6(C)CC[C@H](OC(=O)[C@@H](N)CC[Se]C)C(C)(C)[C@@H]6CC[C@]54C)[C@H]3C2)cc1 | 5.73 | 5.62 | 5.15 |  | 
3 | CCOC(=O)/C=C/c1ccc(OC)c(OC(=O)[C@@]2(C)CC[C@]3(C)CC[C@]4(C)C(=CC(=O)[C@@H]5[C@@]6(C)CC[C@H](OC(=O)[C@@H](N)CC[Se]C)C(C)(C)[C@@H]6CC[C@]54C)[C@H]3C2)c1 | 5.49 | 5.16 | 5.00 |  | 
4 | C[C@H]1[C@H](C)CC[C@]2(C(=O)OCCCCN3CCCC3)CC[C@]3(C)C(=CC[C@@H]4[C@@]5(C)CC[C@H](O)C(C)(C)[C@@H]5CC[C@]43C)[C@H]12 |  |  |  | 5.14 | 
5 | COC(=O)/C=C/c1ccc(OC(=O)[C@@]2(C)CC[C@]3(C)CC[C@]4(C)C(=CC(=O)[C@@H]5[C@@]6(C)CC[C@H](OC(=O)[C@@H](N)CCSC)C(C)(C)[C@@H]6CC[C@]54C)[C@H]3C2)c(OC)c1 | 5.45 | 5.22 | 4.98 |  | 
6 | C[C@H]1[C@H](C)CC[C@]2(C(=O)OCCCBr)CC[C@]3(C)C(=CC[C@@H]4[C@@]5(C)CC[C@H](O)C(C)(C)[C@@H]5CC[C@]43C)[C@H]12 [BROMOPROPYL-3BETA-HYDROXY-URS-12-EN-28-OATE] |  |  |  | 5.19 | 
7 | COC(=O)/C=C/c1cccc(OC(=O)[C@@]2(C)CC[C@]3(C)CC[C@]4(C)C(=CC(=O)[C@@H]5[C@@]6(C)CC[C@H](OC(=O)[C@@H](N)CCSC)C(C)(C)[C@@H]6CC[C@]54C)[C@H]3C2)c1 | 5.45 | 5.14 | 5.07 |  | 
8 | C[C@H]1[C@H](C)CC[C@]2(C(=O)OCCCCN3CCCCC3)CC[C@]3(C)C(=CC[C@@H]4[C@@]5(C)CC[C@H](O)C(C)(C)[C@@H]5CC[C@]43C)[C@H]12 |  |  |  | 5.30 | 
9 | CC(=O)OC[C@@]1(C)[C@@H]2CC[C@]3(C)[C@H](CC=C4[C@@H]5[C@@H](C)[C@H](C)CC[C@]5(C(=O)NO)CC[C@]43C)[C@@]2(C)C[C@@H](OC(C)=O)[C@@H]1OC(C)=O |  |  |  |  | pIC50 [5]: 5.79
10 | Cc1nc(C)c(COC(=O)[C@]23CCC(C)(C)C[C@H]2C2=CC[C@@H]4[C@@]5(C)CC[C@H](OC(=O)[C@@H](N)CO)C(C)(C)[C@@H]5CC[C@@]4(C)[C@]2(C)CC3)nc1C |  |  |  | 5.31 | pIC50 [5]: 5.28; pIC50 [6]: 5.32; pIC50 [7]: 5.32
11 | COC(=O)/C=C/c1cccc(OC(=O)[C@@]2(C)CC[C@]3(C)CC[C@]4(C)C(=CC(=O)[C@@H]5[C@@]6(C)CC[C@H](OC(=O)[C@@H](N)CC[Se]C)C(C)(C)[C@@H]6CC[C@]54C)[C@H]3C2)c1 | 5.61 | 5.46 | 5.34 |  | 
12 | COC(=O)/C=C/c1ccc(OC(=O)[C@@]2(C)CC[C@]3(C)CC[C@]4(C)C(=CC(=O)[C@@H]5[C@@]6(C)CC[C@H](OC(=O)[C@@H](N)CCSC)C(C)(C)[C@@H]6CC[C@]54C)[C@H]3C2)cc1 | 5.19 | 5.14 | 5.07 |  | 
13 | C[C@H]1[C@H](C)CC[C@]2(C(=O)OCCN3CCOCC3)CC[C@]3(C)C(=CC[C@@H]4[C@@]5(C)CC[C@H](O)C(C)(C)[C@@H]5CC[C@]43C)[C@H]12 |  |  |  | 5.06 | 
14 | C[C@H]1[C@H](C)CC[C@]2(C(=O)OCCN3CCCC3)CC[C@]3(C)C(=CC[C@@H]4[C@@]5(C)CC[C@H](O)C(C)(C)[C@@H]5CC[C@]43C)[C@H]12 |  |  |  | 5.35 | 
15 | COC(=O)/C=C/c1ccc(OC)c(OC(=O)[C@@]2(C)CC[C@]3(C)CC[C@]4(C)C(=CC(=O)[C@@H]5[C@@]6(C)CC[C@H](OC(=O)[C@@H](N)CCSC)C(C)(C)[C@@H]6CC[C@]54C)[C@H]3C2)c1 | 5.34 | 5.06 | 5.05 |  | 
16 | CCOC(=O)/C=C/c1cccc(OC(=O)[C@@]2(C)CC[C@]3(C)CC[C@]4(C)C(=CC(=O)[C@@H]5[C@@]6(C)CC[C@H](OC(=O)[C@@H](N)CC[Se]C)C(C)(C)[C@@H]6CC[C@]54C)[C@H]3C2)c1 | 5.82 | 5.59 | 5.43 |  | 

Row | SMILES | pIC50 [1] | pIC50 [2] | pIC50 [3] | pIC50 [4] | further results
17 | CC(=O)OC[C@@]1(C)[C@@H]2CC[C@]3(C)[C@H](CC=C4[C@@H]5[C@@H](C)[C@H](C)CC[C@]5(C(=O)N(C)O)CC[C@]43C)[C@@]2(C)C[C@@H](OC(C)=O)[C@@H]1OC(C)=O |  |  |  |  | pIC50 [5]: 5.42
18 | Cc1nc(C)c(COC(=O)[C@]23CCC(C)(C)C[C@H]2C2=CC[C@@H]4[C@@]5(C)CC[C@H](OC(=O)[C@H](C)N)C(C)(C)[C@@H]5CC[C@@]4(C)[C@]2(C)CC3)nc1C |  |  |  | 5.35 | pIC50 [5]: 5.11; pIC50 [6]: 5.63; pIC50 [7]: 5.32
19 | CCOC(=O)/C=C/c1ccc(OC(=O)[C@@]2(C)CC[C@]3(C)CC[C@]4(C)C(=CC(=O)[C@@H]5[C@@]6(C)CC[C@H](OC(=O)[C@@H](N)CC[Se]C)C(C)(C)[C@@H]6CC[C@]54C)[C@H]3C2)c(OC)c1 | 5.46 | 5.07 | 4.91 |  | 
20 | C[C@H]1[C@H](C)CC[C@]2(C(=O)OCCBr)CC[C@]3(C)C(=CC[C@@H]4[C@@]5(C)CC[C@H](O)C(C)(C)[C@@H]5CC[C@]43C)[C@H]12 |  |  |  | 4.91 | 
21 | CCOC(=O)/C=C/c1ccc(OC)c(OC(=O)[C@@]2(C)CC[C@]3(C)CC[C@]4(C)C(=CC(=O)[C@@H]5[C@@]6(C)CC[C@H](OC(=O)[C@@H](N)CCSC)C(C)(C)[C@@H]6CC[C@]54C)[C@H]3C2)c1 | 5.33 | 5.06 | 4.90 |  | 
22 | CCOC(=O)/C=C/c1cccc(OC(=O)[C@@]2(C)CC[C@]3(C)CC[C@]4(C)C(=CC(=O)[C@@H]5[C@@]6(C)CC[C@H](OC(=O)[C@@H](N)CCSC)C(C)(C)[C@@H]6CC[C@]54C)[C@H]3C2)c1 | 5.72 | 5.24 | 5.18 |  | 
23 | COC(=O)/C=C/c1ccc(OC)c(OC(=O)[C@@]2(C)CC[C@]3(C)CC[C@]4(C)C(=CC(=O)[C@@H]5[C@@]6(C)CC[C@H](OC(=O)[C@@H](N)CC[Se]C)C(C)(C)[C@@H]6CC[C@]54C)[C@H]3C2)c1 | 5.50 | 5.29 | 5.01 |  | 
24 | CCOC(=O)/C=C/c1ccc(OC(=O)[C@@]2(C)CC[C@]3(C)CC[C@]4(C)C(=CC(=O)[C@@H]5[C@@]6(C)CC[C@H](OC(=O)[C@@H](N)CCSC)C(C)(C)[C@@H]6CC[C@]54C)[C@H]3C2)c(OC)c1 | 5.27 | 5.06 | 4.79 |  | 
25 | CCOC(=O)/C=C/c1ccc(OC(=O)[C@@]2(C)CC[C@]3(C)CC[C@]4(C)C(=CC(=O)[C@@H]5[C@@]6(C)CC[C@H](OC(=O)[C@@H](N)CCSC)C(C)(C)[C@@H]6CC[C@]54C)[C@H]3C2)cc1 | 5.64 | 5.58 | 5.25 |  | 
26 | C[C@H]1[C@H](C)CC[C@]2(C(=O)OCCCN3CCOCC3)CC[C@]3(C)C(=CC[C@@H]4[C@@]5(C)CC[C@H](O)C(C)(C)[C@@H]5CC[C@]43C)[C@H]12 |  |  |  | 5.14 | 
27 | COC(=O)/C=C/c1ccc(OC(=O)[C@@]2(C)CC[C@]3(C)CC[C@]4(C)C(=CC(=O)[C@@H]5[C@@]6(C)CC[C@H](OC(=O)[C@@H](N)CC[Se]C)C(C)(C)[C@@H]6CC[C@]54C)[C@H]3C2)c(OC)c1 | 5.86 | 5.73 | 5.31 |  | 
28 | Cc1nc(C)c(COC(=O)[C@]23CCC(C)(C)C[C@H]2C2=CC[C@@H]4[C@@]5(C)CC[C@H](OC(=O)[C@@H]6CCCN6)C(C)(C)[C@@H]5CC[C@@]4(C)[C@]2(C)CC3)nc1C |  |  |  | 5.30 | pIC50 [5]: 5.17; pIC50 [6]: 5.62; pIC50 [7]: 5.49
29 | C[C@H]1[C@H](C)CC[C@]2(C(=O)OCCCCBr)CC[C@]3(C)C(=CC[C@@H]4[C@@]5(C)CC[C@H](O)C(C)(C)[C@@H]5CC[C@]43C)[C@H]12 [BROMOBUTYL-3BETA-HYDROXY-URS-12-EN-28-OATE] |  |  |  | 5.00 | 
30 | C[C@H]1[C@H](C)CC[C@]2(C(=O)OCCCN3CCCCC3)CC[C@]3(C)C(=CC[C@@H]4[C@@]5(C)CC[C@H](O)C(C)(C)[C@@H]5CC[C@]43C)[C@H]12 |  |  |  | 5.14 | 
31 | C[C@H]1[C@H](C)CC[C@]2(C(=O)OCCCN3CCCC3)CC[C@]3(C)C(=CC[C@@H]4[C@@]5(C)CC[C@H](O)C(C)(C)[C@@H]5CC[C@]43C)[C@H]12 |  |  |  | 5.12 | 
32 | C[C@H]1[C@H](C)CC[C@]2(C(=O)OCCCCN3CCOCC3)CC[C@]3(C)C(=CC[C@@H]4[C@@]5(C)CC[C@H](O)C(C)(C)[C@@H]5CC[C@]43C)[C@H]12 |  |  |  | 5.19 | 
